Experimental data taken from ChEMBL document CHEMBL3352501, “SAR analysis of new anti-TB drugs currently in pre-clinical and clinical development” (Eur J Med Chem, 2014).
Converted amounts (≈) assume the structure as drawn.

How the values were obtained:
[1] = tested on: Mycobacterium tuberculosis; assay: Antitubercular activity against drug-resistant Mycobacterium tuberculosis clinical isolates assessed as growth inhibition; format: functional
[2] = tested on: Mycobacterium tuberculosis; assay: Antitubercular activity against multidrug-resistant Mycobacterium tuberculosis clinical isolates assessed as growth inhibition; format: functional

| SMILES | MIC [1] [µg/mL] | MIC90 [2] [nM] |
| --- | --- | --- |
| COc1ncccc1Nc1cc2nc3ccccc3n(-c3ccc(OC(F)(F)F)cc3)c-2c/c1=N\C1CCC(OC)CC1 (stereo not given) | 0.027 (≈ 0.0458 µM) |  |
| CCc1nc2ccc(Cl)cn2c1C(=O)NCc1ccc(N2CCC(c3ccc(OC(F)(F)F)cc3)CC2)cc1 [TELACEBEC] |  | < 0.43 |
| COc1nc2ccc(Br)cc2cc1[C@@H](c1ccccc1)[C@@](O)(CCN(C)C)c1cccc2ccccc12 [BEDAQUILINE] | 0.002 (≈ 0.0036 µM) |  |
| CC(C)=CCC/C(C)=C/CNCCNC1C2CC3CC(C2)CC1C3 (stereo not given) [SQ109] | 0.2 (≈ 0.605 µM) |  |
| CC(C)/N=c1\cc2n(-c3ccc(Cl)cc3)c3ccccc3nc-2cc1Nc1ccc(Cl)cc1 [CLOFAZIMINE] | 0.108 (≈ 0.228 µM) |  |
